Results as given in BindingDB's records for doi:10.3109/14756366.2010.482047 (Academy of Sciences of The Czech Republic, 2011).

biological target: T1, Cytosol aminopeptidase [33-68,L62W] (Sus scrofa, UniProt P28839, L62W); assay: Kinetic Inhibition Assay; conditions: pH 8.4; 25 °C
T1 construct: 33-68
Method: LAP was assayed in 75 mM triethanolamine hydrochloride buffer (pH = 8.4, containing 5 mM MgCl2) at 25°C. The substrate (L-leucine-p-nitroanilide) was dissolved in DMSO and added to the assay buffer followed by the enzyme. The hydrolysis of the substrate was monitored by the change in absorbance measured at 405 nm. All the inhibitor solutions were prepared in the assay buffer. The assay solution, which contained 0.05 mL of the substrate solution (0.2, 0.4, 0.6, 0.8, 1 mM final concentrations), 0.25 mL of an inhibitor solution (concentration dependent on the inhibitor), the enzyme solution (20 μg/ml final concentration) and adjusted to a 1 mL final volume.

T1 sequence (P28839 33-68 L62W): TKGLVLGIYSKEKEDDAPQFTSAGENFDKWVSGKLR

Row | SMILES | Ki [µM]
1 | CCCC[C@H](N)P(=O)(O)O [1-aminopentylphosphonic acid] | 58
2 | CSCC[C@H](N)P(=O)(O)O [Met-P (1)] | 22.6
3 | CSCC[C@H](N)[P@H](=O)O [Met-PH (2)] | 22
4 | CSCCC(N)P(=O)(O)CC(C)C(=O)O (configuration not stated) [Met-ψ[P(O)(OH)CH2]-Ala (5)] | 3.64
5 | CCCCC(N)[PH](=O)O (configuration not stated) [Nle-PH (4)] | 73.9
6 | CCCCC(N)P(=O)(O)O[C@@H](C)C(=O)O (stereo partly drawn) [Nle-ψ[P(O)(OH)O]-L-Ala (6)] | 269
7 | CCCCC(N)P(=O)(O)O[C@@H](C)C(=O)OC (stereo partly drawn) [Nle-ψ[P(O)(OH)O]-L-AlaOMe (7)] | 219
